Reference: PubChem BioAssay (NCI)
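Five compound concentrations were applied to cells in 96-well plates for 48 hours; endpoints were derived by simple linear interpolation of the resulting dose-response curve. TGI denotes the concentration required for complete inhibition of growth.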

Columns and labels:
Experiment in all cases: growth of human tumour cells (NCI), 48 h
[1] = test system: CAKI-1 renal
[2] = test system: CCRF-CEM leukemia
[3] = test system: DLD-1 colon
[4] = test system: DMS 114 small cell lung
[5] = test system: HCC-2998 colon
[6] = test system: HCT-15 colon
[7] = test system: IGROV1 ovarian
[8] = test system: KM12 colon
[9] = test system: LOX IMVI melanoma
[10] = test system: M19-MEL melanoma
[11] = test system: MALME-3M melanoma
[12] = test system: MCF7 breast
[13] = test system: NCI-H460 lung
[14] = test system: NCI/ADR-RES ovarian
[15] = test system: RXF 393 renal
[16] = test system: SF-539 CNS
[17] = test system: SK-OV-3 ovarian
[18] = test system: SN12K1 renal
[19] = test system: SNB-78 CNS
[20] = test system: HL-60(TB) leukemia

| Compound | TGI [1] [µM] | TGI [2] [µM] | TGI [3] [µM] | TGI [4] [µM] | TGI [5] [µM] | TGI [6] [µM] | TGI [7] [µM] | TGI [8] [µM] | TGI [9] [µM] | TGI [10] [µM] | TGI [11] [µM] | TGI [12] [µM] | TGI [13] [µM] | TGI [14] [µM] | TGI [15] [µM] | TGI [16] [µM] | TGI [17] [µM] | TGI [18] [µM] | TGI [19] [µM] | TGI [20] [µM] |
| --- | --- | --- | --- | --- | --- | --- | --- | --- | --- | --- | --- | --- | --- | --- | --- | --- | --- | --- | --- | --- |
| COC1OCC(O)C(NC(=O)N(C)N=O)C1O (configuration not stated) | > 100 | > 100 | > 100 | > 100 | > 100 | > 100 | > 100 | > 100 | > 100 | > 100 | > 100 | > 100 | > 100 | > 100 | > 100 | > 100 | > 100 | > 100 | > 100 |  |
| CN(C)C(=O)Oc1c(Br)cc(Br)cc1C(=O)OCc1ccccc1 | 68.6 | 68.3 | > 96.8 | 53.1 | > 96.5 | > 81.7 | > 100 | 75.9 | 60.2 | 44.3 | 55.3 | > 70.3 | 56.5 | 51.8 | > 75.6 | 53.4 | > 100 | > 88.2 | > 100 | 49.9 |
| CCCCCCSc1nc(N)nc2nc[nH]c12 |  | > 100 | > 100 |  | > 100 | > 100 | > 100 | > 100 | > 100 | > 100 | > 100 | > 100 | > 100 | > 100 | > 93 | > 100 | 80.8 | > 100 | > 100 | 60.4 |
| O=C1CC(/C=C/c2ccco2)=C(O)C1=O | 34.6 | 8.68 |  |  | 31.9 | 31.9 | 24.5 | 27.6 | 25.4 |  | 23.9 | 21.4 | 35.6 | > 100 | 21.7 | 31.1 | 54.5 |  |  | 57.1 |
| COC1/C=C/C=C(/C)Cc2cc(O)c(Cl)c(c2)N(C)C(=O)CC(OC(=O)C(C)C)C2(C)OC2C(C)C2CC1(O)NC(=O)O2 (configuration not stated) | > 100 | > 100 |  |  |  |  | > 100 |  | > 100 |  | > 100 | > 100 |  |  | > 100 |  | > 100 |  |  | > 100 |
| CC[C@@]1(O)C[C@H](OC2CC(N(C)C)C(O)C(C)O2)c2c(cc3c(c2O)C(=O)c2c(O)ccc(O)c2C3=O)[C@H]1C(=O)OC (some centres not stated) | 0.25 | 0.603 | 0.891 | 0.489 | 0.579 | 0.976 | 1.35 | 1 | 0.772 | 0.288 | 0.304 | 0.996 | 0.12 | 0.619 | 0.258 | 0.41 | 2.37 | 0.256 | 1.34 | 0.218 |
| O=c1ccc2ccc(CBr)cc2o1 | 2.89 |  |  |  | 9.53 | 3.45 | 13.1 |  | 3.01 |  |  | 3.87 | 25.3 | 3.73 | 3.47 | 13.9 |  |  |  | 3.58 |
| CN(C)CCNC(=O)c1cccc2ccc(-c3ccc(Br)cc3)nc12 | 7.15 | 7.75 | 10.8 | 9.8 | 6.32 | 12.5 | 13.2 | 15.5 | 4.82 | 6.15 | 8.68 | 13.8 | 2.77 | 5.89 | 13.1 | 11.4 | 10.6 | 2.63 | 22.5 | 4.2 |
| CC(=O)C(=O)NC1/C=C(C)\C=C/C(O)C/C=C(C)\C=C/C(O)CC2OC(=O)C1(C)C(=O)C2C (configuration not stated) | > 100 | > 100 | > 100 | > 100 | > 100 | > 100 | > 100 | > 100 | > 100 | > 100 | > 100 | > 100 | > 100 | > 100 | > 100 | > 100 | > 100 | > 100 | > 100 |  |
| C/C(=N\Nc1nc2cc(Cl)ccc2s1)c1ccccn1 | 46 | > 75.4 |  |  | > 80.8 | > 79.9 |  | > 84.8 | 13.5 |  | > 25.6 |  | > 100 |  |  | > 100 | 33.6 |  |  | 0.586 |
| CC1(C)OC[C@H](C(=N)OCc2ccccc2)O1 | > 100 | > 100 | > 100 | > 100 | > 100 | > 100 | > 100 | > 100 |  | > 100 | > 100 |  | > 100 |  | > 100 | > 100 | > 100 |  | > 100 | > 100 |
| CCN1c2ccccc2NC(=S)c2c1n[nH]c2-c1ccccc1 | > 100 | 49.4 |  |  | 19.3 | 87.9 | > 100 | 91.1 | > 100 |  |  | 74.9 | 77.2 | 60.9 | > 100 | > 100 | > 100 |  |  | 29.9 |
